Values quoted from earlier work, collected in article PMC13601336 (Frontiers in Pharmacology, 2026).

Molecular target: T1, UGT1A1 (Homo sapiens, UniProt P22309)
T1 construct: purchased BD Gentest (Woburn, MA, USA)
T1 sequence (P22309 26-533): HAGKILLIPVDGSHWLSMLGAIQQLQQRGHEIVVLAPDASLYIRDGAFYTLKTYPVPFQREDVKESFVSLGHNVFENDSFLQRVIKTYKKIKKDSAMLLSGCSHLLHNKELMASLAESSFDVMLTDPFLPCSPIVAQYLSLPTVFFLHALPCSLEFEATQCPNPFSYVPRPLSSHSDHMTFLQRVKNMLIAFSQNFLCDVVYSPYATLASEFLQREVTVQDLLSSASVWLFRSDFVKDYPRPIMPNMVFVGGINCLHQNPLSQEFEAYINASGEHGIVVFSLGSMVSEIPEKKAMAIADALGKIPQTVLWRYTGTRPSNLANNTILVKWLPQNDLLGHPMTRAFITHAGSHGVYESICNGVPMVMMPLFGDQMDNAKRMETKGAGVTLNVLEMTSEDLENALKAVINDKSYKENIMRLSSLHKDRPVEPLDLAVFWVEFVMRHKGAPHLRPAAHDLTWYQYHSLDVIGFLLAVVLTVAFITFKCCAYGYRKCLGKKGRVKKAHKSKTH
Conditions: ref Zhang et al., 2021

Ki: 2180 nM
Structure (SMILES): O=c1c(O)c(-c2ccc(O)c(O)c2)oc2cc(O)cc(O)c12 [Quercetin, quercetin]
